Assay results published in US11028066B2, “Inhibitors of lysine specific demethylase-1” (CELGENE QUANTICEL RESEARCH, INC., priority 2014, dated 2021).

Experiments:
full-length human LSD1 = full-length human LSD1 (Homo sapiens (Human), UniProt O60341); assay: In vitro enzyme inhibition assay LSD-1 (TR-FRET); format: biochemical; details: H3K4me1-biotin peptide
Method: This assay determines the ability of a test compound to inhibit LSD1 demethylase activity.
The enzymatic assay of LSD1 activity is based on Time Resolved-Fluorescence Resonance Energy Transfer (TR-FRET) detection.
Plates were read by EnVision Multilabel Reader in TR-FRET mode (excitation at 320 nm, emission at 615 nm and 665 nm) after 1 hour incubation at room temperature.
The ability of the compounds disclosed herein to inhibit LSD1 activity was quantified and the respective IC50 value was determined.

THP-1 (AML) cells = assay: LSD1 CD11b cellular assay (flow cytometry); format: cell-based; details: Homo sapiens, THP-1, 96 h; CD11b expressing cells, 4 days incubation
Method: To analyze LSD1 inhibitor efficacy in cells, a CD11b flow cytometry assay was performed. LSD1 inhibition induces CD11b expression in THP-1 (AML) cells which can be measured by flow cytometry. […] LSD1 test compounds were serially diluted in DMSO. The dilutions were added to each well accordingly to a final concentration of 0.2% DMSO. The cells were incubated at 37 degrees Celsius in 5% CO2 for 4 days. 250 μL of each well was transferred to a well in a 96 well round bottom plate. The plate was centrifuged at 1200 rpm at 4 degrees Celsius in a Beckman Coulter Alegra 6KR centrifuge for 5 minutes. The media was removed leaving the cells at the bottom of the wells. The cells were washed in 100 μL cold HBSS (Hank's Balanced Salt Solution) plus 2% BSA (Bovine Serum Albumin) solution and centrifuged at 1200 rpm at 4 degrees Celsius for 5 minutes. The wash was removed. […] The cells were centrifuged and washed two times in 100 μL HBSS plus 2% BSA. After the final spin the cells were resuspended in 100 μL HBSS plus 2% BSA containing 1 ug/mL DAPI (4′,6-diamidino-2-phenylindole). The cells were then analyzed by flow cytometry in a BD FACSAria machine. Cells were analyzed for CD11b expression. The percent of CD11b expressing cells for each inhibitor concentration was used to determine an IC50 curve for each compound analyzed.

Structure (SMILES)	IC50 (full-length human LSD1) [nM]	IC50 (THP-1 (AML) cells) [nM]
Cn1c(-c2ccc(C3CC3)cc2)c(-c2ccc(C#N)cc2)nc(NC[C@H]2CCNC2)c1=O [Example 34, 4-[3-(4-cyclopropylphenyl)-4-methyl-5-oxo-6-{[(3S)-pyrrolidin-3-ylmethyl]amino}-4,5-dihydropyrazin-2-yl]benzonitrile]	< 100	100 to 1000
Cn1c(-c2ccc(C3CC3)cc2)c(-c2ccc(C#N)cc2)nc(NC[C@@H]2CCNC2)c1=O [Example 35, 4-[3-(4-cyclopropylphenyl)-4-methyl-5-oxo-6-{[(3R)-pyrrolidin-3-ylmethyl]amino}-4,5-dihydropyrazin-2-yl]benzonitrile]	< 100	100 to 1000
Cc1ccc(-c2c(-c3ccc(C#N)cc3)nc(N3CCC(N)CC3)c(=O)n2CCO)cc1 [Example 37, 4-[6-(4-amino-piperidin-1-yl)-4-(2-hydroxy-ethyl)-5-oxo-3-p-tolyl-4,5-dihydro-pyrazin-2-yl]-benzonitrile]	< 100	< 100
N#Cc1ccc(-c2nc(N3CCC(N)CC3)c(=O)n(CCO)c2-c2ccc(C3CC3)cc2)cc1 [Example 38, 4-[6-(4-amino-piperidin-1-yl)-3-(4-cyclopropyl-phenyl)-4-(2-hydroxy-ethyl)-5-oxo-4,5-dihydro-pyrazin-2-yl]-benzonitrile]	< 100	< 100
COCCCn1c(-c2ccc(C)cc2)c(-c2ccc(C#N)cc2)nc(N2CCC(N)CC2)c1=O [Example 39, 4-[6-(4-amino-piperidin-1-yl)-4-(3-methoxy-propyl)-5-oxo-3-p-tolyl-4,5-dihydro-pyrazin-2-yl]-benzonitrile]	< 100	< 100
COCCn1c(-c2ccc(C)cc2)c(-c2ccc(C#N)c(F)c2)nc(N2CCC(N)CC2)c1=O [Example 41, 4-[6-(4-amino-piperidin-1-yl)-4-(2-methoxy-ethyl)-5-oxo-3-p-tolyl-4,5-dihydro-pyrazin-2-yl]-2-fluoro-benzonitrile]	< 100	< 100
COCCn1c(-c2ccc(C)cc2)c(-c2ccc(C#N)c(F)c2)nc(NC[C@H]2CCNC2)c1=O [Example 43, 4-(6-{[((3S)-pyrrolidin-3-yl)methyl]amino}-4-(2-methoxyethyl)-3-(4-methylphenyl)-5-oxo(4-hydropyrazin-2-yl))-2-fluorobenzenecarbonitrile]	< 100	< 100
COCCCn1c(-c2ccc(C)cc2)c(-c2ccc(C#N)c(F)c2)nc(N2CCC(N)CC2)c1=O [Example 45, 4-[6-(4-aminopiperidyl)-4-(3-methoxypropyl)-3-(4-methylphenyl)-5-oxo(4-hydropyrazin-2-yl)]-2-fluorobenzenecarbonitrile]	< 100	< 100
Cc1ccc(-c2c(-c3ccc(C#N)cc3)nc(N3CCC(N)CC3)c(=O)n2C)cn1 [Example 49, 4-[6-(4-amino-piperidin-1-yl)-4-methyl-3-(6-methyl-pyridin-3-yl)-5-oxo-4,5-dihydro-pyrazin-2-yl]-benzonitrile]	< 100	< 100
Cn1c(-c2ccc(C3CC3)cc2)c(-c2ccc(C#N)c(F)c2)nc(N2CCC(N)CC2)c1=O [Example 50, 4-[6-(4-amino-piperidin-1-yl)-3-(4-cyclopropyl-phenyl)-4-methyl-5-oxo-4,5-dihydro-pyrazin-2-yl]-2-fluoro-benzonitrile]	< 100	< 100
COc1ccc(-c2c(-c3ccc(C#N)nc3)nc(N3CCC(N)CC3)c(=O)n2C)cc1 [Example 51, 5-[6-(4-amino-piperidin-1-yl)-3-(4-methoxy-phenyl)-4-methyl-5-oxo-4,5-dihydro-pyrazin-2-yl]-pyridine-2-carbonitrile]	< 100	< 100
COc1ccc(-c2c(-c3ccc(C#N)c(F)c3)nc(N3CCC(N)CC3)c(=O)n2C)cc1 [Example 52, 4-[6-(4-amino-piperidin-1-yl)-3-(4-methoxy-phenyl)-4-methyl-5-oxo-4,5-dihydro-pyrazin-2-yl]-2-fluoro-benzonitrile]	< 100	< 100
Cn1c(-c2ccc(C3CC3)cc2)c(-c2ccc(C#N)nc2)nc(N2CCC(N)CC2)c1=O [Example 53, 5-[6-(4-amino-piperidin-1-yl)-3-(4-cyclopropyl-phenyl)-4-methyl-5-oxo-4,5-dihydro-pyrazin-2-yl]-pyridine-2-carbonitrile]	< 100	< 100
COc1ccc(-c2c(-c3ccc(C#N)nc3)nc(NC[C@H]3CCNC3)c(=O)n2C)cc1 [Example 54, 5-{3-(4-methoxy-phenyl)-4-methyl-5-oxo-6-[((3S)-pyrrolidin-3-ylmethyl)-amino]-4,5-dihydro-pyrazin-2-yl}-pyridine-2-carbonitrile]	< 100	< 100
CCc1ccc(-c2c(-c3ccc(C#N)nc3)nc(NC[C@H]3CCNC3)c(=O)n2C)cc1 [Example 56, 5-{3-(4-ethyl-phenyl)-4-methyl-5-oxo-6-[((3S)-pyrrolidin-3-ylmethyl)-amino]-4,5-dihydro-pyrazin-2-yl}-pyridine-2-carbonitrile]	< 100	< 100
CCc1ccc(-c2c(-c3ccc(C#N)c(F)c3)nc(NC[C@H]3CCNC3)c(=O)n2C)cc1 [Example 57, 4-{3-(4-ethyl-phenyl)-4-methyl-5-oxo-6-[((3S)-pyrrolidin-3-ylmethyl)-amino]-4,5-dihydro-pyrazin-2-yl}-2-fluoro-benzonitrile]	< 100	< 100
Cn1c(-c2ccc(C3CC3)cc2)c(-c2ccc(C#N)nc2)nc(NC[C@H]2CCNC2)c1=O [Example 58, 5-{3-(4-cyclopropyl-phenyl)-4-methyl-5-oxo-6-[((3S)-pyrrolidin-3-ylmethyl)-amino]-4,5-dihydro-pyrazin-2-yl}-pyridine-2-carbonitrile]	< 100	100 to 1000
Cn1c(-c2ccc(C3CC3)cc2)c(-c2ccc(C#N)c(F)c2)nc(NC[C@H]2CCNC2)c1=O [Example 59, 4-{3-(4-cyclopropyl-phenyl)-4-methyl-5-oxo-6-[((3S)-pyrrolidin-3-ylmethyl)-amino]-4,5-dihydro-pyrazin-2-yl}-2-fluoro-benzonitrile]	< 100	< 100
Cn1c(-c2ccc(OCC3CC3)cc2)c(-c2ccc(C#N)c(F)c2)nc(NC[C@H]2CCNC2)c1=O [Example 61, 4-{3-(4-cyclopropylmethoxy-phenyl)-4-methyl-5-oxo-6-[((3S)-pyrrolidin-3-ylmethyl)-amino]-4,5-dihydro-pyrazin-2-yl}-2-fluoro-benzonitrile]	< 100	< 100
CCOc1ccc(-c2c(-c3ccc(C#N)c(F)c3)nc(NC[C@H]3CCNC3)c(=O)n2C)cc1 [Example 62, 4-{3-(4-ethoxy-phenyl)-4-methyl-5-oxo-6-[((3S)-pyrrolidin-3-ylmethyl)-amino]-4,5-dihydro-pyrazin-2-yl}-2-fluoro-benzonitrile]	< 100	< 100
Cn1c(-c2ccc(OC(F)(F)F)cc2)c(-c2ccc(C#N)c(F)c2)nc(NC[C@H]2CCNC2)c1=O [Example 63, 2-fluoro-4-[4-methyl-5-oxo-6-[((3S)-pyrrolidin-3-ylmethyl)-amino]-3-(4-trifluoromethoxy-phenyl)-4,5-dihydro-pyrazin-2-yl]-benzonitrile]	< 100	< 100
CNC1CCN(c2nc(-c3ccc(C#N)c(F)c3)c(-c3ccc(C)cc3)n(CCCO)c2=O)CC1 [Example 64, 2-Fluoro-4-[4-(3-hydroxy-propyl)-6-(4-methylamino-piperidin-1-yl)-5-oxo-3-p-tolyl-4,5-dihydro-pyrazin-2-yl]-benzonitrile]	< 100	< 100
CNC1CCN(c2nc(-c3ccc(C#N)c(F)c3)c(-c3ccc(C)cc3)n(CCO)c2=O)CC1 [Example 65, 2-Fluoro-4-[4-(2-hydroxy-ethyl)-6-(4-methylamino-piperidin-1-yl)-5-oxo-3-p-tolyl-4,5-dihydro-pyrazin-2-yl]-benzonitrile]	< 100	< 100
COc1ccc(-c2c(-c3ccc(C#N)c(F)c3)cc(N3CCC(N)CC3)c(=O)n2C)cc1 [Example 67, 4-(5-(4-aminopiperidin-1-yl)-2-(4-methoxyphenyl)-1-methyl-6-oxo-1,6-dihydropyridin-3-yl)-2-fluorobenzonitrile]	< 100	< 100
COc1ccc(-c2c(-c3ccc(C#N)nc3)cc(N3CCC(N)CC3)c(=O)n2C)cc1 [Example 68, 5-(5-(4-aminopiperidin-1-yl)-2-(4-methoxyphenyl)-1-methyl-6-oxo-1,6-dihydropyridin-3-yl)picolinonitrile]	< 100	100 to 1000
COc1ccc(-c2c(-c3ccc(C#N)nc3)cc(NC[C@H]3CCNC3)c(=O)n2C)cc1 [Example 69, (S)-5-(2-(4-methoxyphenyl)-1-methyl-6-oxo-5-(pyrrolidin-3-ylmethylamino)-1,6-dihydropyridin-3-yl)picolinonitrile]	< 100	100 to 1000
